Data as given in ChEMBL document CHEMBL1149965, “Synthesis and biological evaluation of conformationally constrained bicyclic and tricyclic balanol analogues as inhibitors of protein kinase C” (Bioorg Med Chem Lett, 1995).

Assays:
[1] = biological target: Protein kinase C eta type (Homo sapiens, UniProt P24723); experiment: Inhibition of Protein kinase C eta
[2] = biological target: Protein kinase C gamma type (Homo sapiens, UniProt P05129); experiment: Inhibition Protein kinase C gamma
[3] = biological target: T1, Protein kinase C beta type (Homo sapiens, UniProt P05771); experiment: Inhibition of Protein kinase C beta 2
T1 sequence (P05771 whole entry): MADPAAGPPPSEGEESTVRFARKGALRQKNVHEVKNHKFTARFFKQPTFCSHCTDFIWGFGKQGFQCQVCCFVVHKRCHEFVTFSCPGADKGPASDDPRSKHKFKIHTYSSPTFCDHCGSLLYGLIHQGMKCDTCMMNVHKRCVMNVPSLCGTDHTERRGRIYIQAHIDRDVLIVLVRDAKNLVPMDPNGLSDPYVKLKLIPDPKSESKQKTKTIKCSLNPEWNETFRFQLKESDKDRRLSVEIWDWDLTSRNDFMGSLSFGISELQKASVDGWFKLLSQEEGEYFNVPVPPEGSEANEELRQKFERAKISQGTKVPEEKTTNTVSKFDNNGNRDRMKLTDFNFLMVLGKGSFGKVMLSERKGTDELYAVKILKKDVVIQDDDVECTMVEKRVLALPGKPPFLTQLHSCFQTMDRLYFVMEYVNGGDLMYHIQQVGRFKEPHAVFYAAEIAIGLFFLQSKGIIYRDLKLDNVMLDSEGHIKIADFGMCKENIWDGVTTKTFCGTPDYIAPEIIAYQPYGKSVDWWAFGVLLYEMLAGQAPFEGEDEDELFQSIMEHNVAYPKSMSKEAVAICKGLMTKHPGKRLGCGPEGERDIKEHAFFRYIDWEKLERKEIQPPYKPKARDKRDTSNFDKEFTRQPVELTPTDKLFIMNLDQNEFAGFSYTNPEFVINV

[4] = biological target: Protein kinase C alpha type (Homo sapiens, UniProt P17252); experiment: Inhibition of Protein kinase C alpha
[5] = biological target: Protein kinase C delta type (Homo sapiens, UniProt Q05655); experiment: Inhibition of Protein kinase C delta
Protein kinase C delta type, sequence (Q05655 whole entry): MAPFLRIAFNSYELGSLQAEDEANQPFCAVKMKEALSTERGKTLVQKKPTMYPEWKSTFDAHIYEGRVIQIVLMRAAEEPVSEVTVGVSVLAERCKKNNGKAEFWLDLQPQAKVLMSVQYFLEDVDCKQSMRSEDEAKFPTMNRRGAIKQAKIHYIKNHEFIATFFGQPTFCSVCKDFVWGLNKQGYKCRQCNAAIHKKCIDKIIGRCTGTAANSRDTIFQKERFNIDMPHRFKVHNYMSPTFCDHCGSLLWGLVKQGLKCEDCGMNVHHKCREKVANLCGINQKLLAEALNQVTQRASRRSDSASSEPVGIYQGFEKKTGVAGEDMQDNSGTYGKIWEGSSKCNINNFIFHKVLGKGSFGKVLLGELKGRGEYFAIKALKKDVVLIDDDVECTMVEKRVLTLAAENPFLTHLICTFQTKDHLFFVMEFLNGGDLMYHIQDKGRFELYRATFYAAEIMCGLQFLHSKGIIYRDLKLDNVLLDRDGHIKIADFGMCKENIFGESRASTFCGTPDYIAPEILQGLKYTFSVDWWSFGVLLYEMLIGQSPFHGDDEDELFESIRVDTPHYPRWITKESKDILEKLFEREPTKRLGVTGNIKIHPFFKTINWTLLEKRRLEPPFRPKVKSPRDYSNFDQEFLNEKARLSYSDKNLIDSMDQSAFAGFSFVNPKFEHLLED

[6] = biological target: cAMP-dependent protein kinase (PKA) (Homo sapiens, UniProt P22694+P17612+P22612); experiment: Inhibition of Protein Kinase A; assay type: protein assay
[7] = biological target: T2, Protein kinase C epsilon type (Homo sapiens, UniProt Q02156); experiment: Inhibition of Protein kinase C epsilon
T2 sequence (Q02156 whole entry): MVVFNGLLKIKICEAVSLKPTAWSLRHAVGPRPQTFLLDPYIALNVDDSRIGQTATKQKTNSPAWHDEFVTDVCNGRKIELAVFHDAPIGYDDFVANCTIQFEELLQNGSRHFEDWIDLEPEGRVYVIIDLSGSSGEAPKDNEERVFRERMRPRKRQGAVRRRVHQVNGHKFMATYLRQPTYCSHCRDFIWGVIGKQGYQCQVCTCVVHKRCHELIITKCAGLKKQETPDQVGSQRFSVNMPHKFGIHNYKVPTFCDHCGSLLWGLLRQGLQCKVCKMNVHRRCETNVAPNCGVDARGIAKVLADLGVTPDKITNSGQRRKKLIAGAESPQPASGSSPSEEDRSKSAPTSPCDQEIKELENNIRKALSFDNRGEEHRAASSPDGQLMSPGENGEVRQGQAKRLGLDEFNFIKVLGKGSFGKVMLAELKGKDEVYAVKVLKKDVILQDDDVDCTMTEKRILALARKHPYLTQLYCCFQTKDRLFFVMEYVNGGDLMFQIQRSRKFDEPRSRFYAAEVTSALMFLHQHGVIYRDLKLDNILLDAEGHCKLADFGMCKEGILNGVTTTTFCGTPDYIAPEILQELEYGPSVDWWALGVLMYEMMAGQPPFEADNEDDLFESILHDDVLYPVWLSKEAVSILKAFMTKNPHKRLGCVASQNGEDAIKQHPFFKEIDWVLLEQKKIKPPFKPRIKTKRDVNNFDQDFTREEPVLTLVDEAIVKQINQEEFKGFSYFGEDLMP

[8] = biological target: T3, Protein kinase C zeta type (Homo sapiens, UniProt Q05513); experiment: Inhibition of Protein kinase C zeta
T3 sequence (Q05513 whole entry): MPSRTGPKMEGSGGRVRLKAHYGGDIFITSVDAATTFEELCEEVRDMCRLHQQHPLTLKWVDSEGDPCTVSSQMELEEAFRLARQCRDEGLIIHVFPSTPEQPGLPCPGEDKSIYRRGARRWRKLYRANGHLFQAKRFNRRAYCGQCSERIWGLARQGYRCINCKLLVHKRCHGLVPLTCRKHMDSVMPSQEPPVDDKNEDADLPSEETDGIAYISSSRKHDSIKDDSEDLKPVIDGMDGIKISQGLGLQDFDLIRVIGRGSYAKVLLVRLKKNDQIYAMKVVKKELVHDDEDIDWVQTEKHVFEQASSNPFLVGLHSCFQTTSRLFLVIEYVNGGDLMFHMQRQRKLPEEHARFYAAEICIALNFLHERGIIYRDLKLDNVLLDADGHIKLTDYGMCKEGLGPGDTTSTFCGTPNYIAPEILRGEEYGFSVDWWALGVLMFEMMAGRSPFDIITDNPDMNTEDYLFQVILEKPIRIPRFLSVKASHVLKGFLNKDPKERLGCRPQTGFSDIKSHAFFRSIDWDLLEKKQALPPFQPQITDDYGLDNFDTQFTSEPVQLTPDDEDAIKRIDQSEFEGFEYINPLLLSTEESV

[9] = biological target: T1, Protein kinase C beta type; experiment: Inhibition of Protein kinase C beta 1

Protein kinase C eta type, sequence (P24723 whole entry): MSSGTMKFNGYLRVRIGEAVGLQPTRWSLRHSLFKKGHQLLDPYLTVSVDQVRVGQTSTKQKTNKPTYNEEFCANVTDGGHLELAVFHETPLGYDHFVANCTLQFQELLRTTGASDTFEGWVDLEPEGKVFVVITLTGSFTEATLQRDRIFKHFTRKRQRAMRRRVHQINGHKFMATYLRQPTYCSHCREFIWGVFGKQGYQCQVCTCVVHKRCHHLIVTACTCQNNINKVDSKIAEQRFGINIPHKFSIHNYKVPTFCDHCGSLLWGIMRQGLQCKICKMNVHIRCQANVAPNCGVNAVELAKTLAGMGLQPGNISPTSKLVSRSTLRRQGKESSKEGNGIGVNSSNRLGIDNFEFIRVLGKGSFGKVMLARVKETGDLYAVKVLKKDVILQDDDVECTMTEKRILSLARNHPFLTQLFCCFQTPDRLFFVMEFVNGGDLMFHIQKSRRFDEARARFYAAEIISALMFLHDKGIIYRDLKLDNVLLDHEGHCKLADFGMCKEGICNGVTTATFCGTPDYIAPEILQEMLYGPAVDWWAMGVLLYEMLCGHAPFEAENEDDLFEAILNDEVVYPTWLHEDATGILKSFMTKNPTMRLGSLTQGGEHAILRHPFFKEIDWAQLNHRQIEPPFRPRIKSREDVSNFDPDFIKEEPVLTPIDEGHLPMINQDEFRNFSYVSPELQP

In the case of `CC1(C)C2CCC1(C)C(OC(=O)c1cc(O)c(C(=O)c3c(O)cccc3C(=O)O)c(O)c1)C2NC(=O)c1ccc(O)cc1` (stereo not drawn), the IC50 [1] is reported as 0.31 µM, the IC50 [2] is reported as 0.21 µM and the IC50 [3] is reported as 0.08 µM. For the same molecule, the IC50 [4] was 0.41 µM, the IC50 [5] was 0.34 µM and the IC50 [6] was 26 µM. For the same molecule, the IC50 [7] was 3.6 µM, the IC50 [8] was over 50 µM and the IC50 [9] was 0.31 µM.
With `O=C(N[C@@H]1CNCCCC1OC(=O)c1cc(O)c(C(=O)c2c(O)cccc2C(=O)O)c(O)c1)c1ccc(O)cc1` (mixture of isomers) the IC50 [1] was 0.022 µM, the IC50 [2] was 0.034 µM and the IC50 [3] was 0.044 µM. For the same molecule, the IC50 [4] was 0.074 µM, the IC50 [5] was 0.032 µM and the IC50 [8] was 3.5 µM. The IC50 [9] was 0.032 µM.
In the case of `O=C(NC1CNC[C@@H]1OC(=O)c1cc(O)c(C(=O)c2c(O)cccc2C(=O)O)c(O)c1)c1ccc(O)cc1` (mixture of isomers), the IC50 [1] is reported as 0.004 µM, the IC50 [2] is reported as 0.014 µM and the IC50 [3] is reported as 0.033 µM. It also gave an IC50 [4] of 0.022 µM, an IC50 [5] of 0.005 µM and an IC50 [6] of 0.07 µM. The IC50 [7] was 0.015 µM, the IC50 [8] was over 0.15 µM and the IC50 [9] was 0.017 µM.
`O=C(NC1CCC[C@@H]1OC(=O)c1cc(O)c(C(=O)c2c(O)cccc2C(=O)O)c(O)c1)c1ccc(O)cc1` (mixture of isomers) gave an IC50 [1] of 0.001 µM, an IC50 [2] of 0.01 µM and an IC50 [3] of 0.05 µM. The IC50 [4] was 0.04 µM, the IC50 [5] was 0.001 µM and the IC50 [7] was 0.05 µM. For the same molecule, the IC50 [9] was 0.04 µM.
Molecule `O=C(NC1C2CCC(C2)C1OC(=O)c1cc(O)c(C(=O)c2c(O)cccc2C(=O)O)c(O)c1)c1ccc(O)cc1` (racemic) has an IC50 [1] of 0.02 µM, an IC50 [2] of 0.035 µM and an IC50 [3] of 0.03 µM. It also gave an IC50 [4] of 0.055 µM, an IC50 [5] of 0.02 µM and an IC50 [6] of 1.9 µM. The IC50 [7] was 0.03 µM and the IC50 [9] was 0.045 µM.
In the case of `O=C(NC1C2CCC(C2)C1OC(=O)c1cc(O)c(C(=O)c2c(O)cccc2C(=O)O)c(O)c1)c1ccc(O)cc1` (stereo in doubt), the IC50 [1] is reported as 4.5 µM, the IC50 [2] is reported as 10 µM and the IC50 [3] is reported as 6.9 µM. The IC50 [4] was 24 µM, the IC50 [5] was 3.5 µM and the IC50 [6] was over 50 µM. The IC50 [7] was 1.5 µM and the IC50 [9] was 17 µM.
`CN1C2CCC1C(NC(=O)c1ccc(O)cc1)C(OC(=O)c1cc(O)c(C(=O)c3c(O)cccc3C(=O)O)c(O)c1)C2` (stereo in doubt; anti) was tested, and the IC50 [1] was 2.8 µM, the IC50 [2] was 4.6 µM and the IC50 [3] was 14 µM. The IC50 [4] was 34 µM, the IC50 [5] was 5 µM and the IC50 [6] was over 50 µM. It also gave an IC50 [7] of 27 µM, an IC50 [8] of over 50 µM and an IC50 [9] of 4.4 µM.
For `O=C(NC1CN2CCC(CC2)C1OC(=O)c1cc(O)c(C(=O)c2c(O)cccc2C(=O)O)c(O)c1)c1ccc(O)cc1` (stereo in doubt; anti), the IC50 [1] was 0.026 µM, the IC50 [2] was 0.17 µM and the IC50 [3] was 0.069 µM. For the same molecule, the IC50 [4] was 0.415 µM, the IC50 [5] was 0.112 µM and the IC50 [6] was 2 µM. The IC50 [7] was 0.17 µM and the IC50 [9] was 0.026 µM.
In the case of `O=C(NC1C2CC(C3CCCC32)C1OC(=O)c1cc(O)c(C(=O)c2c(O)cccc2C(=O)O)c(O)c1)c1ccc(O)cc1` (stereo in doubt; anti), the IC50 [1] is reported as 0.05 µM, the IC50 [2] is reported as 0.05 µM and the IC50 [3] is reported as 0.03 µM. It also gave an IC50 [4] of 0.1 µM, an IC50 [5] of 0.05 µM and an IC50 [6] of 32 µM. The IC50 [7] was 0.97 µM and the IC50 [9] was 0.15 µM.
`CN1C2CCC1C(NC(=O)c1ccc(O)cc1)C(OC(=O)c1cc(O)c(C(=O)c3c(O)cccc3C(=O)O)c(O)c1)C2` (stereo in doubt; syn) was tested, and the IC50 [1] was 2.5 µM, the IC50 [2] was 16 µM and the IC50 [3] was 22 µM. For the same molecule, the IC50 [4] was 35 µM, the IC50 [5] was 3.8 µM and the IC50 [6] was over 50 µM. The IC50 [7] was 49 µM, the IC50 [8] was over 50 µM and the IC50 [9] was 22 µM.
With `O=C(NC1CN2CCC(CC2)C1OC(=O)c1cc(O)c(C(=O)c2c(O)cccc2C(=O)O)c(O)c1)c1ccc(O)cc1` (stereo in doubt; syn) the IC50 [1] was 0.49 µM, the IC50 [2] was 4.6 µM and the IC50 [3] was 34 µM. The IC50 [4] was 12 µM, the IC50 [5] was 1 µM and the IC50 [6] was over 50 µM. For the same molecule, the IC50 [7] was 14 µM and the IC50 [9] was 6.3 µM.
`O=C(NC1C2CC(C3CCCC32)C1OC(=O)c1cc(O)c(C(=O)c2c(O)cccc2C(=O)O)c(O)c1)c1ccc(O)cc1` (stereo in doubt; syn) showed an IC50 [1] of 1.9 µM, an IC50 [2] of 1.6 µM and an IC50 [3] of 2.1 µM. It also gave an IC50 [4] of 2.7 µM, an IC50 [5] of 2 µM and an IC50 [6] of over 50 µM. It also gave an IC50 [7] of 40 µM and an IC50 [9] of 3.3 µM.
